Data: patent US7572800B2, “Combination therapy to treat hepatitis B virus” (Gilead Sciences, Inc., priority 1998, dated 2009)

Key:
HBV = experiment: Antiviral evaluation: extracellular (virion) HBV DNA levels produced by 2.2.15 cells; assay type: cell-based, hepatitis B virus; conditions: for depression of extracellular (virion) HBV DNA levels: 9 consecutive daily doses
Experimental: Details of the assay methodology can be found in: Korba and Gerin, Antiviral Res. 19: 55-70 (1992) and Korba, Antiviral Res. 29: 49-52 (1996). The antiviral evaluations were performed on six separate cultures per each of four test concentrations. All wells, in all plates, were seeded at the same density and at the same time.
Due to the inherent variations in the levels of both intracellular and extracellular HBV DNA, only depressions greater than 3.0-fold for HBV virion DNA from the average levels for these HBV DNA forms in untreated cells are generally considered to be statistically significant [P<0.05] (Korba and Gerin, Antiviral Res. 19: 55-70, 1992). Typical values for extracellular HBV virion DNA in untreated cells range from 80 to 150 pg/ml culture medium (average of approximately 92 pg/ml).
For reference, the manner in which the hybridization analyses were performed for these experiments results in an equivalence of approximately 1.0 pg of extracellular HBV DNA/ml culture medium to 3×10^5 viral particles/ml.
For the antiviral test analyses, confluent cultures were maintained on 96-well flat bottomed tissue culture plates. Two separate (replicate) plates were used for each drug treatment. A total of 3 cultures on each plate were treated with each of the dilutions of antiviral agents (6 cultures per dilution). Cultures were treated with 9 consecutive daily doses of the test compounds. Medium was changed daily with fresh test compounds. Only extracellular (virion) HBV DNA levels were followed.

2.2.15 cells = experiment: Toxicity analysis by uptake of neutral red dye; conditions: at the concentrations used for the antiviral evaluations
Experimental: Toxicity analysis were performed in 96-well flat bottomed tissue culture plates. Cells for the toxicity analyses were cultured and treated with test compounds with the same schedule and under identical culture conditions as used for the antiviral evaluations. Each compound was tested at 4 concentrations, each in triplicate cultures. Uptake of neutral red dye was used to determine the relative level of toxicity 24 hours following the last treatment. The absorbance of internalized dye at 510 nM (A510) was used for the quantative analysis. Values are presented as a percentage of the average A510 values (±standard deviations) in 9 separate cultures of untreated cells maintained on the same 96-well plate as the test compounds.

SMILES | anti-HBV activity/potency compared with previous reports or earlier analyses (HBV) | depression of extracellular (virion) HBV DNA levels (HBV) | toxicity (greater than 50% depression of neutral red dye uptake levels observed in untreated cells) (2.2.15 cells)
Cc1cn([C@H]2O[C@@H](CO)[C@H](O)[C@H]2F)c(=O)[nH]c1=O [L-FMAU, 2′-fluoro-5-methyl-β-L-arabinofuranolyluridine] | lower than that observed in earlier analyses | significant and selective depressions | 
Nc1ccn([C@@H]2CS[C@H](CO)O2)c(=O)n1 [3TC, (−)β,L,2′,3′-dideoxy-3′thiacytidine] |  |  | No significant toxicity
Nc1nc(=O)n([C@@H]2CS[C@H](CO)O2)cc1F [FTC, β-2-Hydroxymethyl-5-(5-fluorocytosin-1-yl)-1,3-oxathiolane] | lower than that observed in earlier analyses | significant and selective depressions | No significant toxicity
Nc1nc(N)c2ncn([C@H]3CO[C@@H](CO)O3)c2n1 [DAPD] | lower than that observed in earlier analyses | significant and selective depressions | 
Nc1nc2c(ncn2CCC(CO)CO)c(=O)[nH]1 [PCV, 2-amino-1,9-dihydro-9-[4-hydroxy-3-(hydroxymethyl)butyl]-6H-purin-6-one, reference compound] | higher than previously reported | significant depressions | No significant toxicity
Nc1nc2c(ncn2C2COC(CO)O2)c(=O)[nH]1 (stereo not drawn) [DXG] |  | significant and selective depressions | 
